The source of these data is the supplement of paper PMC10307832.

Assay in all cases: relative viability (nuclei count vs DMSO), 5 days (fraction); higher = more cells survive
Compound in assay [1]: COc1cc2c(Oc3ccc4[nH]c(C)cc4c3F)ncnc2cc1OCCCN1CCCC1 [Cediranib] + Nc1ncn([C@H]2C[C@H](O)[C@@H](CO)O2)c(=O)n1 [Decitabine] (partner 2 µM)
The procedure, abridged:
(§1)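 Lung cancer cell lines in 1536-well plates were dosed by pin tool the day after seeding, either with one drug alone or with a fixed anchor-drug dose plus five library-drug doses (not always all listed) in √10 steps. After 5 days, cells were fixed and their nuclei stained in one step (final 0.05% Triton X-100, 1% formaldehyde, 1 ug/ml Hoechst), then counted on 4× images. Relative viability is the nuclei count in treated wells divided by that in vehicle wells. Values are medians of duplicate plates.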

Compound in assay [2]: Nc1ncn([C@H]2C[C@H](O)[C@@H](CO)O2)c(=O)n1 [Decitabine] + COc1cccc2cc(-c3nc([C@H]4CC[C@H](C(=O)O)CC4)n4ncnc(N)c34)[nH]c12 [OSI-027] (partner 0.5 µM)
In short, it runs like this:
as §1

Compound in assay [3]: Nc1ncn([C@H]2C[C@H](O)[C@@H](CO)O2)c(=O)n1 [Decitabine] + C[C@@H](Oc1cc(-c2cnn(C3CCNCC3)c2)cnc1N)c1c(Cl)ccc(F)c1Cl [Crizotinib] (partner 1 µM)
In short, it runs like this: as §1

Compound in assay [4]: O=C(C[C@H]1NCCC[C@@H]1O)Cn1cnc2cc(Br)c(Cl)cc2c1=O (racemic) [Halofuginone] + N=C(N)NC(=N)NCCc1ccccc1 [Phenformin] (partner 250 µM)
The procedure, abridged: as §1

For the cell line NCI-H3122, the relative viability is 0.558 in assay [1] (first compound 0.04 µM); 0.421 in assay [1] (first compound 0.4 µM); 0.417 in assay [1] (first compound 1.265 µM); 0.477 in assay [1] (first compound 4 µM); 0.814 in assay [2] (first compound 0.04 µM); 0.955 in assay [2] (first compound 0.1265 µM). In addition, the relative viability in assay [2] (first compound 0.4 µM) amounted to 0.468; in assay [2] (first compound 4 µM) it was 0.559; in assay [3] (first compound 0.04 µM), 0.258; in assay [3] (first compound 0.1265 µM), 0.251; in assay [3] (first compound 0.4 µM) it was 0.277; in assay [3] (first compound 1.265 µM), 0.346. In addition, the relative viability came to 0.28 in assay [3] (first compound 4 µM); 0.379 in assay [4] (first compound 0.001 µM); 0.37 in assay [4] (first compound 0.003162 µM); 0.356 in assay [4] (first compound 0.01 µM); 0.355 in assay [4] (first compound 0.03162 µM); 0.383 in assay [4] (first compound 0.1 µM).
For the cell line NCI-H1563, the relative viability came to 0.791 in assay [2] (first compound 0.04 µM); 0.811 in assay [2] (first compound 0.1265 µM); 0.767 in assay [2] (first compound 0.4 µM); 0.774 in assay [2] (first compound 1.265 µM); 0.76 in assay [2] (first compound 4 µM); 0.947 in assay [3] (first compound 0.04 µM). The relative viability in assay [3] (first compound 0.1265 µM) was found to be 0.861; in assay [3] (first compound 0.4 µM) it was 0.908; in assay [3] (first compound 1.265 µM) it was 0.905; in assay [3] (first compound 4 µM), 0.799; in assay [4] (first compound 0.001 µM) it was 0.659; in assay [4] (first compound 0.003162 µM) it was 0.638. In addition, the relative viability worked out at 0.615 in assay [4] (first compound 0.01 µM), 0.602 in assay [4] (first compound 0.03162 µM) and 0.549 in assay [4] (first compound 0.1 µM).
Regarding HCC-44, the relative viability in assay [1] (first compound 0.04 µM) stood at 0.932; in assay [1] (first compound 0.1265 µM) it was 0.629; in assay [1] (first compound 0.4 µM), 0.93; in assay [1] (first compound 1.265 µM), 0.934; in assay [1] (first compound 4 µM) it was 0.958; in assay [2] (first compound 0.1265 µM), 0.739. The relative viability in assay [2] (first compound 0.4 µM) came to 0.232; in assay [2] (first compound 1.265 µM), 0.364; in assay [2] (first compound 4 µM), 0.49; in assay [3] (first compound 0.04 µM), 0.641; in assay [3] (first compound 0.1265 µM), 0.72; in assay [3] (first compound 0.4 µM) it was 0.28. The relative viability in assay [3] (first compound 1.265 µM) came out at 0.449; in assay [3] (first compound 4 µM) it was 0.374; in assay [4] (first compound 0.001 µM), 0.23; in assay [4] (first compound 0.003162 µM), 0.222; in assay [4] (first compound 0.01 µM), 0.196; in assay [4] (first compound 0.03162 µM), 0.178. Also, in assay [4] (first compound 0.1 µM), the relative viability was 0.13.
PC-3 [JPC-3]: the relative viability worked out at 0.804 in assay [1] (first compound 0.04 µM); 0.777 in assay [1] (first compound 0.4 µM); 0.737 in assay [1] (first compound 1.265 µM); 0.753 in assay [1] (first compound 4 µM); 0.463 in assay [2] (first compound 0.04 µM); 0.702 in assay [2] (first compound 0.1265 µM). For the same cell line, the relative viability in assay [2] (first compound 0.4 µM) came to 0.475; in assay [2] (first compound 1.265 µM) it was 0.469; in assay [2] (first compound 4 µM) it was 0.426; in assay [3] (first compound 0.1265 µM) it was 0.728; in assay [3] (first compound 0.4 µM), 0.388; in assay [3] (first compound 1.265 µM) it was 0.536. Also, the relative viability stood at 0.516 in assay [3] (first compound 4 µM); 0.501 in assay [4] (first compound 0.001 µM); 0.453 in assay [4] (first compound 0.003162 µM); 0.456 in assay [4] (first compound 0.01 µM); 0.473 in assay [4] (first compound 0.03162 µM); 0.443 in assay [4] (first compound 0.1 µM).
Turning to NCI-H1993, the relative viability worked out at 0.629 in assay [1] (first compound 0.1265 µM); 0.666 in assay [1] (first compound 0.4 µM); 0.518 in assay [1] (first compound 1.265 µM); 0.651 in assay [1] (first compound 4 µM); 0.593 in assay [2] (first compound 0.04 µM); 0.599 in assay [2] (first compound 0.1265 µM). Besides, the relative viability in assay [2] (first compound 0.4 µM) was 0.519; in assay [2] (first compound 1.265 µM), 0.514; in assay [2] (first compound 4 µM) it was 0.548; in assay [3] (first compound 0.04 µM), 0.898; in assay [3] (first compound 0.1265 µM) it was 0.776; in assay [3] (first compound 0.4 µM), 0.832. In addition, the relative viability in assay [3] (first compound 1.265 µM) was found to be 0.702; in assay [3] (first compound 4 µM), 0.728; in assay [4] (first compound 0.001 µM) it was 0.436; in assay [4] (first compound 0.003162 µM), 0.554; in assay [4] (first compound 0.01 µM), 0.448; in assay [4] (first compound 0.03162 µM), 0.535. In addition, in assay [4] (first compound 0.1 µM), the relative viability is 0.577.
